Target: PFKFB3 (Homo sapiens (Human), UniProt Q16875)
Assay: PFKFB3 kinase activity, Method A (F-2,6-P2 production, coupled PPi-PFK/NADH assay)
Type: biochemical
Excerpt: The PFKFB3 (placenta form) and PFKFB4 were produced and purified to homogeneity from E. coli at Biovitrum and at Sprint Bioscience. All other reagents were purchased from commercial sources. Two independent methods have been used for determination of the kinase activity of PFKFB3 (Method A and Method B). Method B has been used for determination of the kinase activity of PFKFB4.
Method A: The kinase activity of the bi-functional enzyme is readily quantified based on the production of F-2,6-P2 as described by Van Schaftingen et al. (1982) Eur. J. Biochem. 129, 191-5. This sensitive assay is based on the potent activation of pyrophosphate dependent phosphofructokinase-1 (PPi-PFK) from potato tubers by F-2,6-P2. The use of a series of coupled enzymes leads to a consumption of NADH (nicotinamide adenine dinucleotide) that can be followed spectrophotometrically (an updated protocol is available in Van Schaftingen, (1984) Methods of Enzymatic Analysis (Bergmeyer, H. U., ed.), 3rd edn., vol. 6, pp. 335-341, Verlag Chemie, Weinheim). A protocol for measurements in 96-well microtiter plate format is also available (Bruni et al., (1989) Anal. Biochem. 178, 324-6). These assay protocols have been adopted for the measurement of the kinase activity of PFKFB3 with some modifications as described in the protocol below.
The assay was run in 96-well microtiter plates (Costar 3365 round bottom polypropylene) by consecutive additions of 30 μl each of a test compound solution (diluted from a DMSO stock solution), a PFKFB3 solution and a substrate (fructose-6-phosphate (F6P) and adenosine-5′-triphosphate (ATP)) containing solution. […] The final concentrations of all reagents in a total assay volume of 90 μl per well were: • 50 mM Tris-acetate at pH 8.0 • 0.1 mM EDTA (ethylene diamine tetraacetic acid) • 10 mM MgCl2 • 5 mM Na2HPO4 (buffered by the Tris-acetate to a final pH of 8.0) • 5 nM PFKFB3 • 4 μM ATP • 100 μM F6P (acid treated and then neutralized to remove any contaminating F-2,6-P2; see Van Schaftingen, 1984) • 1 mM dithiothreitol (DTT) • 0.005% Tween-20
A test compound at various concentrations (which also added 0.83% DMSO to the final solution)
The enzymatic reaction was allowed to proceed for 10 minutes at room temperature while on a plate shaker at medium speed (750 RPM). The reaction was then terminated by the addition of 90 μl of a 0.4 M NaOH solution to all wells. The plate was then placed on the plateshaker at the same speed for two minutes to allow sufficient mixing. All samples were then diluted by a factor of 10 by transferring 20 μl from each well to the corresponding well of a new plate with 180 μl distilled water predispensed to all wells.
The next step in the protocol was quantification of the levels of F-2,6-P2 in each well of the microtiter plate. This was done by transferring 20 μl of the content in each well to the corresponding position in a new plate (Nunc 269620 transparent 96-well plate). […] To ensure that all measured values were within the linear range of the response (measured to be between 0-1 nM of F-2,6-P2 as also described by Van Schaftingen) the same volume of a 2.5 nM and a 5.0 nM standard sample were also added to column 12 (as all samples were diluted five-fold in the assay procedure this corresponds to 0.5 and 1.0 nM samples). The procedure then involved consecutive additions of three solutions with the following premixed components: • Assay-mix (20 μl): Tris-acetate at pH 8.0, NADH and Mg(OAc)2 • PPi/F6P-mix (40 μl): Pyrophosphate and F6P • Enzyme-mix (20 μl): Tris-acetate at pH 8.0, aldolase, triose phosphate isomerase, glycerol-3-phosphate dehydrogenase, pyrophosphate-dependent phosphofructokinase from potato tubers and bovine serum albumin (BSA) […]

Sequence of PFKFB3 (Q16875 whole entry): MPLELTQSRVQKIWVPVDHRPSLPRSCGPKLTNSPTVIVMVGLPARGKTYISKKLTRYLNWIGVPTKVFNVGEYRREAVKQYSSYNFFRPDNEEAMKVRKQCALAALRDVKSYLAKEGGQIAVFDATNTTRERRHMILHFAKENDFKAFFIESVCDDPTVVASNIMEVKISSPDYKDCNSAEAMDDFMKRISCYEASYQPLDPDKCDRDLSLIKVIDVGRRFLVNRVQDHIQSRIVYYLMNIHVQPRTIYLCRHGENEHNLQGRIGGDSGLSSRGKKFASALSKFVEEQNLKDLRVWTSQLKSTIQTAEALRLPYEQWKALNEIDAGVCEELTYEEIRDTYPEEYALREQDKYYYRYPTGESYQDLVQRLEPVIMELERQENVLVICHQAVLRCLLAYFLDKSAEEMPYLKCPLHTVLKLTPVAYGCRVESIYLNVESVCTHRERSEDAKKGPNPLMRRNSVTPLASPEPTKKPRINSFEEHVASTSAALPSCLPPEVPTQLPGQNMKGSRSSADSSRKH

IC50 [nM]	SMILES
280	O=S(=O)(Nc1cccc(-c2nnn[nH]2)c1)c1ccc(Cl)c(Cl)c1Cl [Example 1, 2,3,4-Trichloro-N-[3-(1H-tetrazol-5-yl)phenyl]benzenesulfonamide]
3910	O=S(=O)(Nc1cccc(-c2nnn[nH]2)c1)c1ccc(-c2cnco2)s1 [Example 2, 5-(1,3-Oxazol-5-yl)-N-[3-(1H-tetrazol-5-yl)phenyl]thiophene-2-sulfonamide]
610	Cc1nc(NS(=O)(=O)c2sc3ccc(C(C)C)cc3c2C)sc1C(=O)O [Example 8, 2-{[(5-Isopropyl-3-methyl-1-benzothien-2-yl)sulfonyl]amino}-4-methyl-1,3-thiazole-5-carboxylic acid]
730	Cc1c(S(=O)(=O)Nc2cncc(C(=O)O)c2)sc2ccc(C(C)C)cc12 [Example 9, 5-{[(5-Isopropyl-3-methyl-1-benzothien-2-yl)sulfonyl]amino}nicotinic acid]
810	Cc1c(S(=O)(=O)Nc2cccc(C(=O)O)n2)sc2ccc(C(C)C)cc12 [Example 10, 6-{[(5-Isopropyl-3-methyl-1-benzothien-2-yl)sulfonyl]amino}pyridine-2-carboxylic acid]
850	Cc1c(S(=O)(=O)Nc2cc(C(=O)O)cc([N+](=O)[O-])c2)sc2ccc(C(C)C)cc12 [Example 11, 3-{[(5-Isopropyl-3-methyl-1-benzothien-2-yl)sulfonyl]amino}-5-nitrobenzoic acid]
1020	Cc1c(S(=O)(=O)Nc2cccc(-c3nnn(CC(=O)O)n3)c2)sc2ccc(C(C)C)cc12 [Example 12, [5-(3-{[(5-Isopropyl-3-methyl-1-benzothien-2-yl)sulfonyl]amino}phenyl)-2H-tetrazol-2-yl]acetic acid]
80	Cc1c(S(=O)(=O)Nc2cccc(-c3nnn[nH]3)c2)oc2ccc(C(C)C)cc12 [Example 13, 5-Isopropyl-3-methyl-N-[3-(1H-tetrazol-5-yl)phenyl]-1-benzofuran-2-sulfonamide]
280	Cc1c(S(=O)(=O)Nc2cccc(C(=O)O)c2)oc2ccc(C(C)C)cc12 [Example 14, 3-{[(5-Isopropyl-3-methyl-1-benzofuran-2-yl)sulfonyl]amino}benzoic acid]
230	Cc1c(S(=O)(=O)Nc2cccc(CC(=O)O)c2)sc2ccc(C(C)C)cc12 [Example 15, (3-{[(5-Isopropyl-3-methyl-1-benzothien-2-yl)sulfonyl]amino}phenyl)acetic acid]
450	O=S(=O)(Nc1cccc(-c2nnn[nH]2)c1)c1cccc(-c2ccc(F)cc2)c1 [Example 17, 4′-Fluoro-N-[3-(1H-tetrazol-5-yl)phenyl]biphenyl-3-sulfonamide]
720	COc1ccc(-c2cccc(S(=O)(=O)Nc3cccc(-c4nnn[nH]4)c3)c2)cc1 [Example 19, 4′-Methoxy-N-[3-(1H-tetrazol-5-yl)phenyl]biphenyl-3-sulfonamide]
850	O=S(=O)(Nc1cccc(-c2nnn[nH]2)c1)c1ccc2ccccc2c1 [Example 20, N-[3-(1H-Tetrazol-5-yl)phenyl]naphthalene-2-sulfonamide]
310	Cc1nc(-c2ccc(S(=O)(=O)Nc3cccc(-c4nnn[nH]4)c3)s2)cs1 [Example 25, 5-(2-Methyl-1,3-thiazol-4-yl)-N-[3-(1H-tetrazol-5-yl)phenyl]thiophene-2-sulfonamide]
1390	O=S(=O)(Nc1cccc(-c2nnn[nH]2)c1)c1ccc(-c2ccccc2)cc1 [Example 31, N-[3-(1H-Tetrazol-5-yl)phenyl]biphenyl-4-sulfonamide]
360	Cc1c(S(=O)(=O)Nc2cccc(-c3nnn[nH]3)c2)sc2ccc(N)cc12 [Example 48, 5-Amino-3-methyl-N-[3-(1H-tetrazol-5-yl)phenyl]-1-benzothiophene-2-sulfonamide]
5070	CC(=O)Nc1ccc2sc(S(=O)(=O)Nc3cccc(C(=O)O)c3)c(C)c2c1 [Example 49, 3-({[5-(Acetylamino)-3-methyl-1-benzothien-2-yl]sulfonyl}amino)benzoic acid]

Reference: patent publication US9233946B2, “Sulfonamide compounds” (KANCERA AB, priority 2010, dated 2016)
